What was measured:
[1] = test system: HK82 (AlkB−) E. coli cells; type: cell-based; settings: for Mutagenicity, Average % A / Mutagenicity, Average % C / Mutagenicity, Average % G / Mutagenicity, Average % T: (a) HK82; for base pairing / mutagenicity (in words): FIGS. 18C, 18E, m3C in repair deficient cells
[2] = test system: HK82 (AlkB−) E. coli cells; type: cell-based; settings: for Polymerase bypass efficiency, Avg.: HK82, percentage relative to unmodified control genome, triplicate
HK82SOS = assay: CRAB lesion bypass assay, HK82SOS cells; type: cell-based, E. coli; settings: percentage relative to unmodified control genome
Description: (§1) All E. coli strains used in this work contain the F′ episome, which enables infection by M13 phage. GW5100 strain was used for large scale preparation of M13 phage DNA, SCS 110 (JM110, end Al) was used for amplification of progeny phage post-electroporation, and NR9050 was the strain of choice for double agar plating with X-GAL for blue-clear detection of plaques. The E. coli strains used to replicate lesion-containing phage were HK81 (as AB1157, but nalA) and HK82 (as AB1157, but nalA alkB22; AlkB-deficient).
Lesion-containing genomes were mixed with the competitor genome (80:20 molar ratio) and electroporated in triplicate into 100 μl competent cells using a 2 mm-gap cuvette and a BTX electroporator set to 2.5 kV and 125 a Typical pulse lengths were 4.9 msec. The cells were immediately transferred to 10 ml LB and an aliquot was immediately plated using the agar overlay method to verify that a minimum of 10^5 independent initial electroporation events occurred in 10 ml of culture. Incubation for 6 h at 37° C. with aeration generated the progeny phage, which were then reamplified in SCS 110 cells (10 μl overnight culture and 100 μl of the 6 h supernatant in 10 ml LB) to dilute out the residual genomic DNA used for electroporation. Single-stranded M13 progeny phage DNA was isolated from 1.4 ml of supernatant using a Q1Aprep Spin M13 Kit with final DNA suspension in 100 μl elution buffer. CRAB forward and reverse primers were used to amplify the region of interest from 15 μl per Q1Aprep elution sample in a total volume of 25 μl containing 50 pmol of each primer, 1×Pfu Turbo buffer, 1.25 U Pfu Turbo DNA polymerase and […] of each dNTP. The PCR program used 30 cycles of 67° C. (1 min) annealing and 72° C. (1 min) extensions. […] The gels were visualized on a phosphorimager (Typhoon 7000, GE Healthcare Life Sciences); the band intensities were quantified using IMAGEJ software (National Institutes of Health). Lesion bypass was calculated as the percentage ratio of the intensity of the 18-mer band (lesion signal) to the intensity of the 21-mer band (competitor signal). […]

[3] = test system: HK81 (AlkB+) E. coli cells; type: cell-based; settings: HK81; percentage relative to unmodified control genome
Procedure: (A) A 16mer oligonucleotide containing KP1212 (SEQ ID NO: 1) (or controls) at a specific site was chemically synthesized and ligated into the genome of an M13 bacteriophage. (B) The KP1212-containing M13 genomes were replicated within E. coli cells. Progeny were analyzed to characterize the amount and the type of nucleic acid base placed opposite the lesion during replication. The relative reduction in lesion vs. non-lesion competitor progeny formation was used as an estimate of the extent to which KP1212 and m3C inhibited DNA replication. (C) The KP1212-containing M13 genomes were used as templates for in vitro polymerase extension assays, carried out at 72° C., using the high-fidelity DNA polymerase PfuTurbo. (D) Bypass efficiency (CRAB assay) of KP1212, m3C, C in HK81 (AlkB^+) and HK82 (AlkB^−) E. coli cells. m3C and undamaged C were used as controls. Genomes were made and normalized to one another before being combined with a competitor genome. Each mixture was transformed into the corresponding cell strain in triplicate, and bypass efficiency was calculated by using the undamaged C genome as 100% bypass, with error bars representing one standard deviation. (E) Mutagenesis (REAP assay) of KP1212, m3C, and C in HK82 (AlkB^−) E. coli cells. m3C, undamaged C, and an approximately equimolar mixture of genomes carrying unmodified G/A/T/C bases at the site of inquiry (denoted as GATC) were used as controls. Genomes containing the lesions of interest were transfected into E. coli in triplicate.
as §1

HK82-SOS = assay: REAP mutagenesis assay, HK82-SOS cells; type: cell-based, E. coli; settings: (b) HK82-SOS
Description: as §1
Lesion-containing genomes were mixed with the competitor genome (80:20 molar ratio) and electroporated in triplicate into 100 μl competent cells using a 2 mm-gap cuvette and a BTX electroporator set to 2.5 kV and 125 a Typical pulse lengths were 4.9 msec. The cells were immediately transferred to 10 ml LB and an aliquot was immediately plated using the agar overlay method to verify that a minimum of 10^5 independent initial electroporation events occurred in 10 ml of culture. Incubation for 6 h at 37° C. with aeration generated the progeny phage, which were then reamplified in SCS 110 cells (10 μl overnight culture and 100 μl of the 6 h supernatant in 10 ml LB) to dilute out the residual genomic DNA used for electroporation. Single-stranded M13 progeny phage DNA was isolated from 1.4 ml of supernatant using a Q1Aprep Spin M13 Kit with final DNA suspension in 100 μl elution buffer. CRAB forward and reverse primers were used to amplify the region of interest from 15 μl per Q1Aprep elution sample in a total volume of 25 μl containing 50 pmol of each primer, 1×Pfu Turbo buffer, 1.25 U Pfu Turbo DNA polymerase and […] of each dNTP. The PCR program used 30 cycles of 67° C. (1 min) annealing and 72° C. (1 min) extensions. After purification using QIAQUICK PCR purification columns, 4 μl of the PCR product were treated with BbsI (1.5 U) and SAP (0.3 U) in a total volume of 6 μl by incubating at 37° C. for 4 h. After phosphatase inactivation, (80° C. for 5 min), the 5′ ends were then radiolabeled using [γ-^32P]-ATP (1.66 pmol, 10 μCi/μl, 6000 Ci/mmol), cold ATP (16 pmol) and 5 U of OPTIKINASE at 37° C. for 30 min. Following the kinase inactivation at 65° C. for 20 min, the labeled product was then trimmed by HaeIII (10 U in a final volume of 10 μl) at 37° C. for 2 h, and diluted 1:1 in formamide loading dye. PAGE separation on a 20% denaturing gel, run for about 3.5 h at 550 V, until the xylene cyanol dye migrated 10.5 cm, yielded two bands for each sample: an 18-mer originating from the lesion-containing genome and a 21-mer originating from the competitor genome. The gels were visualized on a phosphorimager (Typhoon 7000, GE Healthcare Life Sciences); the band intensities were quantified using IMAGEJ software (National Institutes of Health). Lesion bypass was calculated as the percentage ratio of the intensity of the 18-mer band (lesion signal) to the intensity of the 21-mer band (competitor signal).
The REAP assay methodology is identical to the CRAB assay except for the PCR primers, which amplified only the progeny DNA originating from the lesion-carrying genomes. Following electrophoresis, the 18-mer bands were excised from the gel, crushed and extracted with 200 μl water. After desalting with SEPHADEX G-50 Fine resin spin columns, the samples were lyophilized to dryness, resuspended in 5 μl containing 1 μg P1 Nuclease in 30 mM sodium acetate (pH 5.3) and 10 mM zinc chloride, and incubated at 50° C. for 1 h. One μl of each sample was then spotted onto PEI-TLC plates and separated using 200 ml of a saturated solution of (NH4)2HPO4 adjusted to pH 5.8. After 24 h of development, the TLC plates were air-dried and quantified using phosphorimagery. […]

[4] = in vitro and in vivo replication of a single-stranded vector containing a single KP1212

| Structure (SMILES) | Mutagenicity, Average % A [1] [%] | Mutagenicity, Average % C [1] [%] | Mutagenicity, Average % G [1] [%] | Mutagenicity, Average % T [1] [%] | base pairing / mutagenicity (in words) [1] | in vivo mutation frequency ([1]; frequency of pairing with any non-G base (A)) | paired with A [1, 4] [%] | paired with G [1, 4] [%] | pairing with A in vivo ([1]; in vivo, E. coli (FIG. 18E)) [%] | pairing with G in vivo ([1]; in vivo, E. coli (FIG. 18E)) [%] | mutation frequency ([1]; observed in vitro and in vivo in this study) [%] | replication block / toxicity to replication ([2]; E. coli (FIG. 18D), for m3C cells that lack AlkB) | Polymerase bypass efficiency, Avg. [2] [%] | Polymerase bypass efficiency, Avg. (HK82SOS) [%] | Polymerase bypass efficiency, Avg. [3] [%] | Mutagenicity, Average % A (HK82-SOS) [%] | Mutagenicity, Average % C (HK82-SOS) [%] | Mutagenicity, Average % G (HK82-SOS) [%] | Mutagenicity, Average % T (HK82-SOS) [%] |
| --- | --- | --- | --- | --- | --- | --- | --- | --- | --- | --- | --- | --- | --- | --- | --- | --- | --- | --- | --- |
| NC1=NC(=O)N([C@H]2C[C@H](O)[C@@H](CO)O2)CN1 [KP1212, 5-aza-5,6-dihydro-2′-deoxycytidine] | 0.0 | 89.1 | 0.4 | 10.5 | mutagenic both in vitro and in vivo | approximately 10% | 10 | 90 | 10 | 90 | 10 | not to be a replication block | 91 | 124 | 128 | 0.1 | 89.4 | 0.2 | 10.3 |
| Nc1ccn([C@H]2C[C@H](O)[C@@H](CO)O2)c(=O)n1 [dC, deoxycytidine] | 0.0 | 100.0 | 0.0 | 0.0 | only pairs with G | – | – | – | – | – | – | – | 100 | 100 | 100 | 0.1 | – | 0.0 | 0.0 |

— US9283242B2, “Uses of dihydro bases” (priority 2013, dated 2016)
